Test results: ChEMBL document CHEMBL5500324, “The potential of marine-derived piperazine alkaloids: Sources, structures and bioactivities” (Eur J Med Chem, 2024)
≈ marks a conversion by molar mass, not a printed value.

How the values were obtained:
SF-268 = experiment: Cytotoxicity against human SF-268 cells assessed as reduction in cell growth incubated for 48 hrs by SRB assay; format: functional, cell-based; details: SF-268, 48 h
HepG2 = experiment: Cytotoxicity against human HepG2 cells assessed as reduction in cell growth incubated for 48 hrs by SRB assay; format: functional, cell-based; details: HepG2, 48 h
MCF7 = experiment: Cytotoxicity against human MCF7 cells assessed as reduction in cell growth incubated for 48 hrs by SRB assay; format: functional, cell-based; details: MCF7, 48 h
NCI-H460 = experiment: Cytotoxicity against human NCI-H460 cells assessed as reduction in cell growth incubated for 48 hrs by SRB assay; format: functional, cell-based; details: NCI-H460, 48 h
P388 [1] = experiment: Cytotoxicity against mouse P388 cells assessed as reduction in cell viability; format: functional; details: read-out: ED50 (the source's name)
P388 [2] = experiment: Cytotoxicity against mouse P388 cells; format: functional; details: read-out: ED50 (the source's name)
Bel-7402 = experiment: Cytotoxicity against human Bel-7402 cells assessed as reduction in cell viability measured for 48 hrs by MTT assay; format: functional, cell-based; details: Bel-7402, 48 h
HL-60 = experiment: Cytotoxicity against human HL-60 cells assessed as reduction in cell viability by MTT assay; format: functional, cell-based
A549 [3] = experiment: Cytotoxicity against human A549 cells assessed as reduction in cell viability measured for 48 hrs by MTT assay; format: functional, cell-based; details: A549, 48 h
MOLT-4 = experiment: Cytotoxicity against human MOLT-4 cells assessed as reduction in cell viability by MTT assay; format: functional, cell-based
P388 [4] = experiment: Cytotoxicity against mouse P388 cells assessed as inhibition of cell growth; format: functional, cell-based
HT-29 [5] = experiment: Cytotoxicity against human HT-29 cells assessed as inhibition of cell growth; format: functional, cell-based
A549 [6] = experiment: Cytotoxicity against human A549 cells assessed as inhibition of cell growth; format: functional, cell-based
SK-MEL-28 = experiment: Cytotoxicity against human SK-MEL-28 cells assessed as inhibition of cell growth; format: functional, cell-based
A549 [7] = experiment: Antiproliferative activity against human A549 cells assessed as reduction in cell viability incubated for 72 hrs by SRB assay; format: functional, cell-based; details: A549, 72 h
HT-29 [8] = experiment: Antiproliferative activity against human HT-29 cells assessed as reduction in cell viability incubated for 72 hrs by SRB assay; format: functional, cell-based; details: HT-29, 72 h
MDA-MB-231 = experiment: Antiproliferative activity against human MDA-MB-231 cells assessed as reduction in cell viability incubated for 72 hrs by SRB assay; format: functional, cell-based; details: MDA-MB-231, 72 h
U-937 = experiment: Cytotoxicity against human U-937 cells assessed as reduction in cell growth incubated for 48 hrs by CCK-8 assay; format: functional, cell-based; details: U-937, 48 h

Work on `CS[C@]1(CO)C(=O)N2[C@H]3C(=CC=C[C@@H]3OC(C)=O)C[C@@]2(SC)C(=O)N1C` yielded an IC50 (SF-268) of 34 µM, an IC50 (HepG2) of 7 µM and an IC50 (MCF7) of 3.1 µM. It also gave an IC50 (NCI-H460) of 3.4 µM.
`CN1C(=O)[C@]23Cc4ccccc4N2C(=O)[C@@]1(CO)SS3` was tested, and the IC50 (SF-268) was 1.35 µM, the IC50 (HepG2) was 1.52 µM and the IC50 (MCF7) was 0.68 µM. The IC50 (NCI-H460) was 1.27 µM.
Compound `CC(C)[C@]12SS[C@]3(C(=O)N1C)[C@@H](O)C1(C45c6ccccc6N[C@H]4N4C(=O)[C@@]6(CO)SS[C@]4(C(=O)N6C)[C@H]5O)c4ccccc4N[C@@H]1N3C2=O` (stereo partly drawn) has an EC50 (P388 [1]) of 1.75 ng/mL (≈ 2.36 nM).
Compound `CC(C)[C@]12SSSS[C@]3(C(=O)N1C)[C@@H](O)C1(C45c6ccccc6N[C@H]4N4C(=O)[C@@]6(C(C)C)SS[C@]4(C(=O)N6C)[C@H]5O)c4ccccc4N[C@@H]1N3C2=O` (stereo partly drawn) has an EC50 (P388 [2]) of 2.1 ng/mL (≈ 2.57 nM).
In the case of `COc1ccc2c(c1)N(CC=C(C)C)C(=O)[C@]21[C@H](C=C(C)C)N2C(=O)[C@@H]3CCCN3C(=O)[C@]2(O)[C@H]1O`, the IC50 (Bel-7402) is reported as 68.8 µM, the IC50 (HL-60) is reported as 43.5 µM and the IC50 (A549 [3]) is reported as 35.9 µM. For the same compound, the IC50 (MOLT-4) was 25.7 µM.
In the case of `COc1c(C)cc2c(c1O)[C@@H]1N[C@H](C2)[C@H](O)N2[C@H]1[C@@H]1SC[C@H](N)C(=O)OC[C@H]2c2c(O)c(OC)c(C)c(OC(C)=O)c21`, the IC50 (P388 [4]) is reported as 10 µM, the IC50 (HT-29 [5]) is reported as 10 ng/mL (≈ 16.6 nM) and the IC50 (A549 [6]) is reported as 10 ng/mL (≈ 16.6 nM). For the same compound, the IC50 (SK-MEL-28) was 5 ng/mL (≈ 8.31 nM).
For `CN1C[C@@H](c2c[nH]c3cc(Br)ccc23)NC[C@@H]1c1c[nH]c2cc(Br)ccc12`, the IC50 (A549 [7]) was 3.1 µM, the IC50 (HT-29 [8]) was 3.3 µM and the IC50 (MDA-MB-231) was 3.8 µM.
In the case of `CS[C@]1(C(C)C)C(=O)N2C(=CC3(C45c6ccccc6N[C@H]4N4C(=O)[C@H](CO)N(C)C(=O)[C@@]4(O)[C@H]5O)c4ccccc4N[C@H]23)C(=O)N1C` (stereo partly drawn), the EC50 (P388 [2]) is reported as 15200 ng/mL (≈ 23000 nM).
For `CO[C@@]12C(=O)N(C)[C@@H](CO)C(=O)N1[C@@H]1Nc3ccccc3C1(C13c4ccccc4N[C@@H]1N1C(=O)[C@@]4(C(C)C)SS[C@]1(C(=O)N4C)[C@@H]3O)[C@H]2O` (stereo partly drawn), the EC50 (P388 [2]) was 180 ng/mL (≈ 254 nM).
Work on `CSS[C@@]1(C(C)C)C(=O)N2C(=CC3(C45c6ccccc6N[C@H]4N4C(=O)[C@H](CO)N(C)C(=O)[C@@]4(O)[C@H]5O)c4ccccc4N[C@H]23)C(=O)N1C` (stereo partly drawn) yielded an EC50 (P388 [2]) of 1100 ng/mL (≈ 1590 nM).
`COc1ccc2c3c(n(CC=C(C)C)c2c1)[C@H](C=C(C)C)N1C(=O)[C@@H]2CCCN2C(=O)[C@]1(O)C3=O` showed an IC50 (Bel-7402) of 25.6 µM, an IC50 (HL-60) of 1.9 µM and an IC50 (A549 [3]) of 16.9 µM. The IC50 (MOLT-4) was 25.7 µM.
Work on `COc1ccc2c(c1)N(/C=C/C(C)(C)OO)C(=O)[C@]21[C@H](C=C(C)C)N2C(=O)[C@@H]3CCCN3C(=O)[C@]2(O)[C@H]1O` yielded an IC50 (Bel-7402) of 98.4 µM, an IC50 (HL-60) of 2.3 µM and an IC50 (A549 [3]) of 3.1 µM. It also gave an IC50 (MOLT-4) of 3.1 µM.
In the case of `COc1ccc2c3c([nH]c2c1)[C@H](C=C(C)C)N1C(=O)[C@@H]2CCCN2C(=O)[C@]1(O)C3`, the IC50 (U-937) is reported as 18.2 µM.
For `CC(C)[C@]12SS[C@]3(C(=O)N1C)[C@@H](O)C1(C45c6ccccc6N[C@H]4N4C(=O)[C@@]6(C(C)C)SS[C@]4(C(=O)N6C)[C@H]5O)c4ccccc4N[C@@H]1N3C2=O` (stereo partly drawn), the EC50 (P388 [2]) was 3.8 ng/mL (≈ 5.05 nM).
With `COc1ccc2c3c([nH]c2c1)[C@H](C=C(C)C)N1C(=O)[C@@H]2CCCN2C(=O)[C@@]1(O)[C@H]3O` the IC50 (U-937) was 92.4 µM.
For `COc1cc2c(cc1O)CCN[C@@]21CS[C@@H]2c3c(OC(C)=O)c(C)c4c(c3[C@H](COC1=O)N1[C@@H]2[C@@H]2N[C@@H](Cc3cc(C)c(OC)c(O)c32)[C@@H]1O)OCO4`, the IC50 (P388 [4]) was 0.2 µM, the IC50 (HT-29 [5]) was 0.5 ng/mL (≈ 0.669 nM) and the IC50 (A549 [6]) was 0.2 ng/mL (≈ 0.267 nM). For the same compound, the IC50 (SK-MEL-28) was 5 ng/mL (≈ 6.69 nM).
In the case of `CC(C)[C@]12SS[C@]3(C(=O)N1C)[C@@H](O)C1(C45c6ccccc6N[C@H]4N4C(=O)[C@@]6(CO)SSS[C@]4(C(=O)N6C)[C@H]5O)c4ccccc4N[C@@H]1N3C2=O` (stereo partly drawn), the EC50 (P388 [1]) is reported as 2.4 ng/mL (≈ 3.1 nM).
For `CC(C)[C@]12SSS[C@]3(C(=O)N1C)[C@@H](O)C1(C45c6ccccc6N[C@H]4N4C(=O)[C@@]6(CO)SSSS[C@]4(C(=O)N6C)[C@H]5O)c4ccccc4N[C@@H]1N3C2=O` (stereo partly drawn), the EC50 (P388 [2]) was 4.6 ng/mL (≈ 5.5 nM).
With `CO[C@@]12C(=O)N(C)[C@@H](CO)C(=O)N1[C@@H]1Nc3ccccc3C1(C13c4ccccc4N[C@@H]1N1C(=O)[C@@]4(C(C)C)SSSS[C@]1(C(=O)N4C)[C@H]3O)[C@@H]2O` (stereo partly drawn) the EC50 (P388 [2]) was 1050 ng/mL (≈ 1360 nM).
In the case of `CO[C@@]12C(=O)N(C)[C@@H](CO)C(=O)N1[C@@H]1Nc3ccccc3C1(C13c4ccccc4N[C@@H]1N1C(=O)[C@@]4(C(C)C)SS[C@]1(C(=O)N4C)[C@H]3O)[C@@H]2O` (stereo partly drawn), the EC50 (P388 [2]) is reported as 1400 ng/mL (≈ 1980 nM).
